Data as given in patent US12723063B2, “GIPR-agonist compounds” (Eli Lilly and Company, priority 2019, dated 2026).
*1 amine or outer side, *2 acyl side, *3 side chain or, on linkers, in order; H or OH if unused. Where a SMILES comes first, the peptide text is derived from it. Side-chain parts run from the residue outwards. [ ]: non-standard residue; d: D form. The star is where a group is joined. C20 diacid = O=C(O)CCCCCCCCCCCCCCCCCCC(=O)*; C18 diacid = O=C(O)CCCCCCCCCCCCCCCCC(=O)*; αMePhe(2-F) = C[C@](N)(Cc1ccccc1F)C(=O)O; γGlu = O=C(O)[C@H](CCC(=O)[*:2])N[*:1]; αMeL = CC(C)C[C@](C)(N)C(=O)O; AEEA = NCCOCCOCC(=O)O; Aib = CC(C)(N)C(=O)O

Columns and labels:
human GLP-1R = molecular target: T1, human GLP-1R (Homo sapiens, UniProt P43220); test: [125I]-GLP-1 binding, SPA with WGA beads, 0.1% bacitracin; conditions: geometric mean, read-out: hGLP1R Ki
T1 construct: expressed in transfected cells; crude membranes
T1 sequence (P43220 24-463): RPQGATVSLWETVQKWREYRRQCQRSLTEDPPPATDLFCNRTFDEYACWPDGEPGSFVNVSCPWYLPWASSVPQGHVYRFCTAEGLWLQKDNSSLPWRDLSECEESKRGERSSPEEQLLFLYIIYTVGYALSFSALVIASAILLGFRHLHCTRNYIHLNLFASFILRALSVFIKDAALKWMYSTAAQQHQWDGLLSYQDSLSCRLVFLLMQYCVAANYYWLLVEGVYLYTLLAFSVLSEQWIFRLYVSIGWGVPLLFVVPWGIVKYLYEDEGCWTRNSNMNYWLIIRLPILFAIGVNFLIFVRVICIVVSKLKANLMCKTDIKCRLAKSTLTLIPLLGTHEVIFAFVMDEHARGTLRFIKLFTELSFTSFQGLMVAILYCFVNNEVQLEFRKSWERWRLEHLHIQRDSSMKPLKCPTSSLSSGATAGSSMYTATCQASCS
In short: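 Binding buffer was 25 mM HEPES pH 7.4 with 2.5 mM CaCl2, 1 mM MgCl2, 0.1% (w/v) bacitracin, 0.003% Tween-20 and EDTA-free protease inhibitors. Four-parameter regression gave IC50, converted to Ki (geometric mean, SEM, n independent days).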

[1] = molecular target: T2, human GLP-1 receptor (GLP-1R) (Homo sapiens, UniProt P43220); test: cAMP functional assay (HTRF) in HEK293 cells in presence of 0.1% casein; assay type: cell-based; conditions: HEK293 cells expressing human GLP-1R, geometric mean, read-out: hGLP1R cAMP Rel EC50 nM (SEM, n)
T2 construct: expressed in transfected cells; host or cells: HEK293
T2 sequence (P43220 24-463): as above

[2] = molecular target: T3, human glucagon receptor (GcgR) (Homo sapiens, UniProt P47871); test: as above; assay type: cell-based; conditions: HEK293 cells expressing human GcgR, geometric mean, read-out: hGcgR cAMP Rel EC50 nM (SEM, n)
T3 construct: expressed in transfected cells; host or cells: HEK293
T3 sequence (P47871 26-477): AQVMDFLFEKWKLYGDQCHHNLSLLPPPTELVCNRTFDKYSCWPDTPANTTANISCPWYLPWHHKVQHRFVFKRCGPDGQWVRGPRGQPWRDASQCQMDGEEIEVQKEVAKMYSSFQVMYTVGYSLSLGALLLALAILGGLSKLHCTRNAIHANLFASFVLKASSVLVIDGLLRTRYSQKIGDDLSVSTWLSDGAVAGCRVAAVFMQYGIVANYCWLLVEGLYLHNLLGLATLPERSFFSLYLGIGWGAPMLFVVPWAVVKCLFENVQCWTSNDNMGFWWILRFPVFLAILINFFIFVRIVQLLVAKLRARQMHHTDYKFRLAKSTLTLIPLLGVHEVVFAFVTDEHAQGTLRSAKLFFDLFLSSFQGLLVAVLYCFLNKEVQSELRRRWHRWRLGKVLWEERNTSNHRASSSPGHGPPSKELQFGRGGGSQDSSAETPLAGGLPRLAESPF

Compound	Ki (human GLP-1R) [nM]	EC50 [1] [nM]	EC50 [2] [nM]
CC[C@H](C)[C@H](NC(=O)[C@H](CO)NC(=O)[C@H](Cc1ccc(O)cc1)NC(=O)[C@H](CC(=O)O)NC(=O)[C@H](CO)NC(=O)[C@@H](NC(=O)[C@H](CC(C)C)NC(=O)[C@@H](NC(=O)CNC(=O)[C@H](CCC(=O)O)NC(=O)[C@@H](C)NC(=O)[C@@H](N)Cc1ccc(O)cc1)[C@@H](C)O)[C@@H](C)CC)C(=O)N[C@@H](CC(C)C)C(=O)N[C@@H](CC(C)C)C(=O)N[C@@H](CC(=O)O)C(=O)N[C@@H](CCCCN)C(=O)N[C@@H](CCCCNC(=O)COCCOCCNC(=O)COCCOCCNC(=O)CC[C@H](NC(=O)CCCCCCCCCCCCCCCCC(=O)O)C(=O)O)C(=O)N[C@@H](C)C(=O)N[C@@H](CCC(N)=O)C(=O)NC(C)(C)C(=O)N[C@@H](CC(=O)O)C(=O)N[C@@H](Cc1ccccc1)C(=O)N[C@H](C(=O)N[C@@H](CC(N)=O)C(=O)N[C@@H](Cc1c[nH]c2ccccc12)C(=O)N[C@@H](CC(C)C)C(=O)N[C@@H](CC(C)C)C(=O)N[C@@H](C)C(=O)N[C@@H](CCC(N)=O)C(=O)NCC(=O)N1CCC[C@H]1C(=O)N[C@@H](CO)C(=O)N[C@@H](CO)C(=O)NCC(=O)N[C@@H](C)C(=O)N1CCC[C@H]1C(=O)N1CCC[C@H]1C(=O)N1CCC[C@H]1C(=O)N[C@@H](CO)C(N)=O)C(C)C [Example 32] (H-Y[dA]EGTLISDYSILLDKK([AEEA-AEEA-γGlu-C18 diacid])AQ[Aib]DFVNWLLAQGPSSGAPPPS-NH2)	85.2	> 5000	> 5000
CC[C@H](C)[C@H](NC(=O)[C@H](CO)NC(=O)[C@H](Cc1ccc(O)cc1)NC(=O)[C@H](CC(=O)O)NC(=O)[C@H](CO)NC(=O)[C@@H](NC(=O)[C@](C)(Cc1ccccc1F)NC(=O)[C@@H](NC(=O)CNC(=O)[C@H](CCC(=O)O)NC(=O)[C@H](C)NC(=O)[C@@H](Cc1ccc(O)cc1)NC(C)=O)[C@@H](C)O)[C@@H](C)CC)C(=O)N[C@@H](C)C(=O)N[C@@H](CC(C)C)C(=O)N[C@@H](CC(=O)O)C(=O)N[C@@H](CCCCN)C(=O)N[C@@H](CCCCNC(=O)COCCOCCNC(=O)COCCOCCNC(=O)CC[C@H](NC(=O)CCCCCCCCCCCCCCCCCCC(=O)O)C(=O)O)C(=O)N[C@@H](Cc1c[nH]cn1)C(=O)N[C@@H](CCC(N)=O)C(=O)NC(C)(C)C(=O)N[C@@H](CCC(=O)O)C(=O)N[C@@H](Cc1ccccc1)C(=O)N[C@H](C(=O)N[C@@H](CC(N)=O)C(=O)N[C@@H](Cc1ccc(O)cc1)C(=O)N[C@@H](CC(C)C)C(=O)N[C@@H](CC(C)C)C(=O)N[C@@H](CCC(=O)O)C(=O)NCC(=O)NCC(=O)N1CCC[C@H]1C(=O)N[C@@H](CO)C(=O)N[C@@H](CO)C(=O)NCC(=O)N[C@@H](C)C(=O)N1CCC[C@H]1C(=O)N1CCC[C@H]1C(=O)N1CCC[C@H]1C(=O)N[C@@H](CO)C(N)=O)C(C)C [Example 33] (Ac-[dY]AEGT[αMePhe(2-F)]ISDYSIALDKK([AEEA-AEEA-γGlu-C20 diacid])HQ[Aib]EFVNYLLEGGPSSGAPPPS-NH2)	31.2	> 5000	> 5000
CC[C@H](C)[C@H](NC(=O)[C@H](CO)NC(=O)[C@H](Cc1ccc(O)cc1)NC(=O)[C@H](CC(=O)O)NC(=O)[C@H](CO)NC(=O)[C@@H](NC(=O)[C@](C)(Cc1ccccc1F)NC(=O)[C@@H](NC(=O)CNC(=O)[C@H](CCC(=O)O)NC(=O)C(C)(C)NC(=O)[C@@H](N)Cc1ccc(O)cc1)[C@@H](C)O)[C@@H](C)CC)C(=O)N[C@@H](C)C(=O)N[C@@H](CC(C)C)C(=O)N[C@@H](CC(=O)O)C(=O)N[C@@H](CCCCN)C(=O)N[C@@H](CCCCNC(=O)COCCOCCNC(=O)COCCOCCNC(=O)CC[C@H](NC(=O)CCCCCCCCCCCCCCCCCCC(=O)O)C(=O)O)C(=O)N[C@@H](Cc1c[nH]cn1)C(=O)N[C@@H](CCC(N)=O)C(=O)NC(C)(C)C(=O)N[C@@H](CCC(=O)O)C(=O)N[C@@H](Cc1ccccc1)C(=O)N[C@H](C(=O)N[C@@H](CC(N)=O)C(=O)N[C@@H](Cc1ccc(O)cc1)C(=O)N[C@@H](CC(C)C)C(=O)N[C@@H](CC(C)C)C(=O)N[C@@H](C)C(=O)N[C@H](C(=O)NCC(=O)N1CCC[C@H]1C(=O)N[C@@H](CO)C(=O)N[C@@H](CO)C(=O)NCC(=O)N[C@@H](C)C(=O)N1CCC[C@H]1C(=O)N1CCC[C@H]1C(=O)N1CCC[C@H]1C(=O)N[C@@H](CO)C(N)=O)[C@@H](C)O)C(C)C [Example 34] (H-Y[Aib]EGT[αMePhe(2-F)]ISDYSIALDKK([AEEA-AEEA-γGlu-C20 diacid])HQ[Aib]EFVNYLLATGPSSGAPPPS-NH2)	201	462	913
CC[C@H](C)[C@H](NC(=O)[C@H](CO)NC(=O)[C@H](Cc1ccc(O)cc1)NC(=O)[C@H](CC(=O)O)NC(=O)[C@H](CO)NC(=O)[C@@H](NC(=O)[C@](C)(CC(C)C)NC(=O)[C@@H](NC(=O)CNC(=O)[C@H](CCC(=O)O)NC(=O)C(C)(C)NC(=O)[C@@H](N)Cc1ccc(O)cc1)[C@@H](C)O)[C@@H](C)CC)C(=O)N[C@@H](C)C(=O)N[C@@H](CC(C)C)C(=O)N[C@@H](CC(=O)O)C(=O)N[C@@H](CCCCN)C(=O)N[C@@H](CCCCNC(=O)COCCOCCNC(=O)COCCOCCNC(=O)CC[C@H](NC(=O)CCCCCCCCCCCCCCCCCCC(=O)O)C(=O)O)C(=O)N[C@@H](Cc1c[nH]cn1)C(=O)N[C@@H](CCC(N)=O)C(=O)NC(C)(C)C(=O)N[C@@H](CCC(=O)O)C(=O)N[C@@H](Cc1ccccc1)C(=O)N[C@H](C(=O)N[C@@H](CC(N)=O)C(=O)N[C@@H](Cc1ccc(O)cc1)C(=O)N[C@@H](CC(C)C)C(=O)N[C@@H](CC(C)C)C(=O)N[C@@H](C)C(=O)N[C@H](C(=O)NCC(=O)N1CCC[C@H]1C(=O)N[C@@H](CO)C(=O)N[C@@H](CO)C(=O)NCC(=O)N[C@@H](C)C(=O)N1CCC[C@H]1C(=O)N1CCC[C@H]1C(=O)N1CCC[C@H]1C(=O)N[C@@H](CO)C(N)=O)[C@@H](C)O)C(C)C [Example 35] (H-Y[Aib]EGT[αMeL]ISDYSIALDKK([AEEA-AEEA-γGlu-C20 diacid])HQ[Aib]EFVNYLLATGPSSGAPPPS-NH2)	177	> 5000	> 5000
CC[C@H](C)[C@H](NC(=O)[C@H](CO)NC(=O)[C@H](Cc1ccc(O)cc1)NC(=O)[C@H](CC(=O)O)NC(=O)[C@H](CO)NC(=O)[C@@H](NC(=O)[C@](C)(Cc1ccccc1F)NC(=O)[C@@H](NC(=O)CNC(=O)[C@H](CCC(=O)O)NC(=O)C(C)(C)NC(=O)[C@@H](N)Cc1ccc(O)cc1)[C@@H](C)O)[C@@H](C)CC)C(=O)N[C@@H](C)C(=O)N[C@@H](CC(C)C)C(=O)N[C@@H](CC(=O)O)C(=O)N[C@@H](CCCCN)C(=O)N[C@@H](CCCCNC(=O)COCCOCCNC(=O)COCCOCCNC(=O)CC[C@H](NC(=O)CCCCCCCCCCCCCCCCCCC(=O)O)C(=O)O)C(=O)N[C@@H](Cc1c[nH]cn1)C(=O)N[C@@H](CCC(N)=O)C(=O)NC(C)(C)C(=O)N[C@@H](CC(=O)O)C(=O)N[C@@H](Cc1ccccc1)C(=O)N[C@H](C(=O)N[C@@H](CCC(=O)O)C(=O)N[C@@H](Cc1ccc(O)cc1)C(=O)N[C@@H](CC(C)C)C(=O)N[C@@H](CC(C)C)C(=O)N[C@@H](CCC(=O)O)C(=O)N[C@H](C(=O)NCC(=O)N1CCC[C@H]1C(=O)N[C@@H](CO)C(=O)N[C@@H](CO)C(=O)NCC(=O)N[C@@H](C)C(=O)N1CCC[C@H]1C(=O)N1CCC[C@H]1C(=O)N1CCC[C@H]1C(=O)N[C@@H](CO)C(N)=O)[C@@H](C)O)C(C)C [Example 36] (H-Y[Aib]EGT[αMePhe(2-F)]ISDYSIALDKK([AEEA-AEEA-γGlu-C20 diacid])HQ[Aib]DFVEYLLETGPSSGAPPPS-NH2)	393	1080	> 5000
CC[C@H](C)[C@H](NC(=O)[C@H](CO)NC(=O)[C@H](Cc1ccc(O)cc1)NC(=O)[C@H](CC(=O)O)NC(=O)[C@H](CO)NC(=O)[C@@H](NC(=O)[C@](C)(Cc1ccccc1F)NC(=O)[C@@H](NC(=O)CNC(=O)[C@H](CCC(=O)O)NC(=O)C(C)(C)NC(=O)[C@@H](N)Cc1ccc(O)cc1)[C@@H](C)O)[C@@H](C)CC)C(=O)N[C@@H](C)C(=O)N[C@@H](CC(C)C)C(=O)N[C@@H](CC(=O)O)C(=O)N[C@@H](CCCCN)C(=O)N[C@@H](CCCCNC(=O)COCCOCCNC(=O)COCCOCCNC(=O)CC[C@H](NC(=O)CCCCCCCCCCCCCCCCCCC(=O)O)C(=O)O)C(=O)N[C@@H](Cc1c[nH]cn1)C(=O)N[C@@H](CCC(N)=O)C(=O)NC(C)(C)C(=O)N[C@@H](CC(=O)O)C(=O)N[C@@H](Cc1ccccc1)C(=O)N[C@H](C(=O)N[C@@H](CCC(=O)O)C(=O)N[C@@H](Cc1ccc(O)cc1)C(=O)N[C@@H](CC(C)C)C(=O)N[C@@H](CC(C)C)C(=O)N[C@@H](CCC(=O)O)C(=O)NCC(=O)NCC(=O)N1CCC[C@H]1C(=O)N[C@@H](CO)C(=O)N[C@@H](CO)C(=O)NCC(=O)N[C@@H](C)C(=O)N1CCC[C@H]1C(=O)N1CCC[C@H]1C(=O)N1CCC[C@H]1C(=O)N[C@@H](CO)C(N)=O)C(C)C [Example 37] (H-Y[Aib]EGT[αMePhe(2-F)]ISDYSIALDKK([AEEA-AEEA-γGlu-C20 diacid])HQ[Aib]DFVEYLLEGGPSSGAPPPS-NH2)	83.9	61.1	> 5000
